“And” between values parts separate entries of the source, which are not always exact repeats. Identical values can stand only once. Each block holds one molecule with its values, some of them ahead of it.
Assays:
DENV serotype 2 [1] = test: GOViRA (graphene oxide-based viral RNA analysis) fluorescence antiviral assay / drug library screening in Vero E6 cells; type: cell-based, dengue virus
Protocol: Vero E6 cells were seeded onto 96-well, black wall, optical bottom plates at a density of 1.5×10^4 cells per well and incubated with DMEM supplemented with 10% FBS and P/S. After overnight incubation, the cells were briefly washed with 1× PBS and infected with DENV. Next, 20 pmol vPNA or β-actin PNA probe was mixed with 1.2 μg DRGON solution for 10 min at RT. The Vero E6 cells were treated with the PNA-DRGON complexes for 5 h. The plates were incubated for up to 72 h, and cell nuclei were counterstained with Hoechst 33342. Fluorescent images were obtained by the IN Cell Analyzer 2000 (GE Healthcare) and DeltaVision Elite (GE Healthcare) imaging system. The quantification of data was processed with the IN Cell Developer software (https://cyvitalifesciences.com).
For the drug library screening experiments, 1.5×10^4 Vero E6 cells in a total volume of 100 μL per well were seeded onto 96-well, black wall, optical bottom plates using DMEM media supplemented with 10% FBS and P/S and incubated overnight. Next, the cells were pretreated with 50 μL of experimental compounds or vehicle in DMEM supplemented with 2% FBS and P/S and incubated 1 h at 37° C. Next, 50 μL of DENV (a final MOI of 0.5) were added to each well, resulting in a 10 μM final concentration for each compound and cells were incubated for 48 h.
Infection was stopped by rinsing each well with 1× PBS, and the infected cells were treated with the PNA-DRGON complexes for 5 h at 37° C. and then briefly washed with 1× PBS. Fluorescent images were obtained by the IN Cell Analyzer 2000, and quantification of the data was processed using the IN Cell Developer software.
To determine its systemic reliability as a high-throughput screening assay, we used Z′-factor as a statistical parameter. […] To further verify whether the GOViRA system is capable of the quantitative analysis of antiviral activity, we utilized the system to investigate the cellular effect caused by a model representative antiviral compound, Ribavirin. […]

DENV serotype 2 [2] = test: Focus-forming assay (FFA) in Vero E6 cells; type: cell-based, dengue virus
Protocol: The virus was titrated by FFA in Vero E6 cells. Ten-fold serial diluted virus in DMEM supplemented with 2% FBS and P/S was added onto confluent Vero E6 cell monolayers attached to 96-well, black wall, optical bottom plates (Corning) and incubated for 1 h. After the incubation, the wells were overlaid with 100 μL of DMEM with 10% FBS, P/S, and methylcellulose and incubated for 2 days. Following the incubation, cell monolayers were fixed with 4% paraformaldehyde and then treated with blocking solution for 1 h. Samples were then treated with the anti-Dengue virus E protein antibody (GeneTex, GTX127277), followed by FITC-labeled goat anti-mouse IgG secondary antibody (Sigma-Aldrich, F0257).
(§1) Standard assays were done to check the antiviral effect and cytotoxicity of ulipristal in vitro. The activity of ulipristal against DENV was evaluated by both FFA and qRT-PCR. For the FFA, Vero E6 cells were infected with DENV in the presence of various concentrations of ulipristal.
(§2) The anti-DENV activity was assessed by immunostaining with antibodies specific to the DENV E protein. […] The cytotoxicity of the compound in the Vero E6 cells was determined by the CCK-8 assay.

Vero E6 cells = test: Cell viability test (CCK-8 assay); type: cell-based
Protocol: The CCK-8 assay was performed according to the manufacturer's instructions. Vero E6, Huh7, and A549 cells were seeded in 96-well culture plates with 100 μL of complete media. After 24 h of incubation, the cells were treated with nanomaterials or drug in serially diluted concentrations for 48 h. The cells were rinsed with 1× PBS twice, and CCK-8 reagent was treated at a concentration of 10% (v/v) and incubated for 1 h. The optical density at 450 nm was measured by SynergyMx (Biotek) in the absorbance mode.

DENV [3] = test: qRT-PCR analysis of viral RNA in DENV-infected Vero E6 cells; type: cell-based, dengue virus; settings: dose-dependent treatment
Protocol: (§3) Total RNA was extracted using Trizol (Invitrogen). The cDNA samples were prepared by reverse transcription using SuperScript II Reverse Transcriptase (Invitrogen). The synthesized cDNA samples were subjected to qRT-PCR with primers specific for each gene by using the PowerUp SYBR Green Master Mix (Applied Biosystems) and CFX Connect (Bio-Rad).
as §1, §2

DENV [4] = test: DENV infection in Huh7 cells (qRT-PCR of viral RNA, E protein immunostaining); type: cell-based, dengue virus
Protocol: as §3
(§4) We further validated the antiviral activity of ulipristal using Huh7 (liver carcinoma cell line) and A549 (lung carcinoma cell line) cell lines as hosts for the DENV infection. Both cell monolayers were analyzed with qRT-PCR to observe the relative DENV RNA level. […] Moreover, the fluorescence signal of the viral E protein from immunostaining also was reduced by the ulipristal treatment (FIG. 11C).

DENV [5] = test: DENV infection in A549 cells (qRT-PCR of viral RNA, E protein immunostaining); type: cell-based, dengue virus
Protocol: as §3, §4

DENV (KBPV-VR-29) = test: Murine DENV infection model (AG129 mice); type: in vivo
Protocol: AG129 mice (8-10 weeks old, female) were purchased from Marshall BioResources and housed under pathogen-free conditions. Animal research was approved by the Institutional Animal Care and Use Committee of Seoul National University and was performed according to the guidelines of the recommendations from the Association for Assessment and Accreditation of Laboratory Animal Care.
The murine DENV infection model was as described in previous study (Park, S. J., Kim, J., Kang, S., Cha, H. J., Shin, H., Park, J., Jang, Y. S., Woo, J. S., Won, C., Min, D. H., 2020. Sci Adv 6 (22), eaaz8201.). AG129 mice were exposed with a target dose of […] of the DENV by intraperitoneal injection. One hour after the challenge, the animals were treated with ulipristal. The compound was dissolved in sesame oil at a 10× concentration and further diluted in 1× PBS. Ulipristal was administered to the animals by intraperitoneal injection.
Animals in the vehicle control groups were administered a solution with no drug. The animals were monitored for weight, morbidity (ruffled fur, hunched posture, etc.), and survival daily for a total of 14 days after infection. Mice with a weight <80% of their initial body weight were humanely euthanized. At 3 days p.i., mice were sacrificed from each group. Blood and organ samples were collected. Blood was clarified by centrifugation, and viremia was determined by qRT-PCR. Organs were homogenized, and total RNA was extracted using Trizol. The relative DENV RNA level from each organ was determined by qRT-PCR.
Organ samples were fixed with 4% paraformaldehyde and embedded in paraffin. Paraffin sections were stained with H&E at the pathology core facility in the Center for Medical Innovation, Seoul National University Hospital, Korea.
The DENV strain we used (KBPV-VR-29) has been reported as a mouse-adapted virus strain. […] One hour after the infection, the animals were treated with ulipristal or vehicle over 14 days, and survival was monitored during that period.
Ulipristal was given at a dose of 15 mg/kg every day through intraperitoneal injection.

PR = test: qRT-PCR analysis of PR expression in A549 cells; type: cell-based; settings: 24 h of incubation
Protocol: as §3
A time-of-addition experiment was performed to determine which time point of the viral infection stage is affected by the administration of ulipristal. Because ulipristal is widely known as an SPRM compound, we chose a cell line without PR expression to exclude the influence of PR signaling on the time-of-addition experiment. […] After 24 h of incubation, the RNA expression level of each group was analyzed. There was no PR expression in the NT group (FIG. 13). […] Therefore, we examined the mode of action of ulipristal using the A549 cell line.

DENV [6] = test: Time-of-addition assay in A549 cells; type: cell-based, dengue virus; settings: 48 h p.i.
Protocol: A549 cells were seeded onto 24-well plates. After incubation overnight, cells were treated with ulipristal at the various time points and inoculated with DENV. At 48 h p.i., the cells were washed with 1× PBS and processed for qRT-PCR.
A549 cells were treated with ulipristal in three different conditions: treatment before the infection (pre-treatment), treatment along with the infection (co-treatment), and treatment after the infection (post-treatment) (FIG. 14A). […] Furthermore, the degree of inhibitory effect was decreased as the ulipristal administration was delayed (FIG. 14B).

[7] = 15 mg/kg every day i.p., day 3 p.i.

EC50 (DENV serotype 2 [1]; Dengue virus, Vero C1008, DENV-infected Vero E6 cells, concentrations 6.25 μM to 400 μM, PNA-DRGON complex after 48 hours, read-out: EC50 value for DENV serotype 2 (GOViRA system)): 49.2 ± 0.2 µM
SMILES: NC(=O)c1ncn([C@@H]2O[C@H](CO)[C@@H](O)[C@H]2O)n1 [ribavirin, Ribavirin]
fluorescence signal (GOViRA), dose response (DENV serotype 2 [1]; DENV-infected Vero E6 cells): serial decrease in the fluorescence signal dose-dependently

SMILES: CC(=O)[C@@]1(O)CC[C@H]2[C@@H]3CCC4=CC(=O)CCC4=C3[C@@H](c3ccc(N(C)C)cc3)C[C@@]21C [ulipristal]
fluorescence signal decrease in drug library screening (DENV serotype 2 [1]; 10 μM, Vero E6 cells, pretreated 1 h, MOI 0.5, 48 h): < 25% | EC50 (DENV serotype 2 [2]; DENV serotype 2, read-out: half-effective concentration (EC50), anti-DENV activity by FFA): 8.3 µM and 8.28 µM | number of foci (FFA, DENV E protein immunostaining) (DENV serotype 2 [2]; various concentrations): number of foci decreased in a dose-dependent manner | cell viability in drug library screening (Vero E6 cells; 10 μM): minimal effects on cell viability | cytotoxicity / cell viability (CCK-8) (Vero E6 cells; 48 h): no impact on cell viability | relative expression level of viral RNA (qRT-PCR) (DENV [3]): active against DENV | fluorescence signal of viral E protein (immunostaining) (DENV [4]): reduced | relative DENV RNA level (qRT-PCR) (DENV [4]): inhibited the DENV infection in both cell lines dose-dependently | fluorescence signal of viral E protein (immunostaining) (DENV [5]): reduced | relative DENV RNA level (qRT-PCR) (DENV [5]): inhibited the DENV infection in both cell lines dose-dependently | spleen histology (H&E), white-pulp/red-pulp boundary loss (DENV (KBPV-VR-29); 15 mg/kg every day i.p.): boundary loss was decreased | viral RNA load in organs (spleen, lung, liver, large intestine) (DENV (KBPV-VR-29); [7]): significantly decreased | viral RNA load in the small intestine, difference vs vehicle (DENV (KBPV-VR-29); [7]): not statistically significant | viremia in the blood (qRT-PCR) (DENV (KBPV-VR-29); 15 mg/kg every day i.p., day 3 p.i., vs control group): significantly reduced viremia | liver histology (H&E): nuclear pleomorphism of hepatocytes, dilatation of sinusoids, focal necrosis (DENV (KBPV-VR-29); 15 mg/kg every day i.p., vs control group): significant reduction of such symptoms | survival (DENV (KBPV-VR-29); 15 mg/kg every day, intraperitoneal, 14 days, log-rank test): statistically significant survival benefit (P=0.0007) | relative body weight change and disease symptoms (DENV (KBPV-VR-29); 15 mg/kg every day, intraperitoneal, DENV 1×107 FFU i.p., 14 days): Compared to the ulipristal-treated group, the control group exhibited a huge weight loss | levels of PR expression (qRT-PCR) (PR): did not influence the levels of PR expression | intracellular viral RNA level, antiviral effect (DENV [6]; co-treatment (along with the infection)): antiviral effect by the administration of the drug was observed | intracellular viral RNA level, antiviral effect (DENV [6]; post-treatment (after the virus inoculation)): less inhibitory effect | intracellular viral RNA level, antiviral effect (DENV [6]; pre-treatment (before the infection)): antiviral effect by the administration of the drug was observed

From patent US12551494B2, “Pharmaceutical composition for preventing or treating dengue fever” (SEOUL NATIONAL UNIVERSITY R&DB FOUNDATION, priority 2021, dated 2026)
